Measured values taken from patent US7138122B2, “Therapeutic systems” (Enzacta R & D Limited, priority 1997, dated 2006).
Entries after “also recorded” stand apart in the source; their conditions may differ.

Assays:
wild-type V79 cells = assay: Uptake of NQO2 co-substrates into V79 cells (fluorimetry); format: in vitro ADME, Chinese hamster; conditions: for uptake / internalisation into cells: 1 mM co-substrate, 37° C.
Procedure: The uptake of various NQO2 co-substrates into V79 cells was determined by fluorimetry. V79 cells were seeded into T25 tissue culture flasks and allowed to grow to confluence (^−2×10^7 cells). The growth medium was removed and replaced with 10 mls of fresh medium containing 1 mM of co-substrate and incubated at 37° C. At various the medium was removed and the cell monolayer washed ×5 with 50 mL of ice cold PBS. The cells were removed by trypsinisation and pelleted by centrifugation. The cell pellet was resuspended in alkaline lysis buffer (KOH 0.5M; 36% W/v CsCl; in 50% aqueous ethanol) disrupted by agitation and the cell debris removed by centrifugation at 10,000 g. The concentration of co-substrate was determined by fluorimetry (excitation 360 nm, emission 450 nm, slits 5nm) by diluting 100μl of supernatant in 2.9ml of 100 mM sodium bicarbonate buffer pH 10. The fluorimeter was calibrated against the appropriate standard. All measurements were done in triplicate.

Rat DT-diaphorase = target: T1, Rat DT-diaphorase (Rattus norvegicus, UniProt P05982); assay: Use of co-substrates by rat DT diaphorase for reduction of CB1954; format: biochemical
T1 sequence (P05982 2-274 limits assumed): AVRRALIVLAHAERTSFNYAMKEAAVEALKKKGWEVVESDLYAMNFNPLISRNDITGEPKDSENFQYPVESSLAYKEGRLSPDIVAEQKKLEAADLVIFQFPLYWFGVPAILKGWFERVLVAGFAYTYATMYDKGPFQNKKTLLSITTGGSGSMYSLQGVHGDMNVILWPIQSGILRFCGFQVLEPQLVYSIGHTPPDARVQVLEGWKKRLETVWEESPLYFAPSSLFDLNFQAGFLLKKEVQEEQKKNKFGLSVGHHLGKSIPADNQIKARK

E. coli nitroreductase = E. coli nitroreductase (Escherichia coli, UniProt P38489); assay: Use of co-substrates by E. coli nitroreductase for reduction of CB1954; format: biochemical
Sequence of E. coli nitroreductase (P38489 whole entry): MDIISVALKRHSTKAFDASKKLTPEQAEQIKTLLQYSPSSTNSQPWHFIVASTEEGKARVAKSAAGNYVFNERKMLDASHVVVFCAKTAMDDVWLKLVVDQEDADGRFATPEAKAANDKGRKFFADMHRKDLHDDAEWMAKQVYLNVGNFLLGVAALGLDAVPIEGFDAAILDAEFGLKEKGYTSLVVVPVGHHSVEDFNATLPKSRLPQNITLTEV

[1] = Effect on the body weight of normal mice (in vivo toxicity); conditions: intravenous (tail vein), 8 day period
Procedure: Mice (6 groups of 3) were injected intravenously (tail vein) with either compound 1 or 2 at the doses shown and the weight of the mice was monitored over an 8 day period. Control mice received vehicle (phosphate buffered saline) only.

[2] = test system: human T98G gliobastoma cells; assay: Cytotoxicity of CB 1954 on T98G glioblastoma cells with NQO2 co-substrates; conditions: 144 hr in presence of CB 1954
NQO2 [3] = target: T2, NQO2 (Homo sapiens, UniProt P16083); assay: Co-substrate activity with NQO2 for reduction of CB 1954 (HPLC); format: biochemical; set-up: restriction site were added to the 5′ and 3′-ends of the full-length NQO2 cDNA; made in house; host or cells: E. coli (expression vector pKK233-2, plasmid pKK-hNQO2); conditions: for Km: of NQO2 for the co-substrate, CB1954 as electron acceptor (100 μM); for kcat: of NQO2 with the co-substrate, CB1954 as electron acceptor; for ability to act as co-substrate for NQO2: reduction of CB 1954 by NQO2; for RELATIVE RATE OF REDUCTION: CB 1954 reduction by NQO2, co-substrate initial 500 μM, CB 1954 initial 100 μM
T2 sequence (P16083 1-231): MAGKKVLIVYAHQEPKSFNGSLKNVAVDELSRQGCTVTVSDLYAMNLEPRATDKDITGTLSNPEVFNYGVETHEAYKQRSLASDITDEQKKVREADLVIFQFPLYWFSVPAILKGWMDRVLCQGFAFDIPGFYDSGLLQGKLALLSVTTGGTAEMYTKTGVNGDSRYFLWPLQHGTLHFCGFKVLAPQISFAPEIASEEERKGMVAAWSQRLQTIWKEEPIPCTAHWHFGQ
Procedure: The effect of various co-substrates on CB 1954 was determined as above but NADH. NADPH or NMNH was substituted for the NRH and CB 1954 was used at a fixed concentration of 100 μM. The enzyme concentration was 5 μg/ml. The reduction of CB 1954 was monitored by measuring both the decrease in its corresponding peak area on the HPLC trace and the increase in the area of the peak corresponding to the reduction product 5-(aziridin-1-yl)-4-hydroxylamino-2-nitrobenzamide. The relative rates of reduction were determined at 10% reduction of CB1954 from a graph plotting CB 1954 reduction against time. The time axis was normalised to the equivalent of 10 μg/ml of NQO2.
The activity of various potential co-substrates was determined by HPLC analysis in the presence of CB1954 and NQO2. To determine the kinetic parameters NQO2 (1 μg/ml) was incubated with NRH (5000 μM) and CB1954 at different concentrations (0.1 to 2 mM) in sodium phosphate buffer (10MM, pH 7) at 37° C. At various times, aliquots (10 μl) were injected onto a Partisphere SCX (250×4.5 mm) HPLC column (Whatman Ltd) and eluted isocratically (1.5 ml/min) with 50 mM aqueous sodium phosphate containing 1% methanol. The eluate was continuously monitored for absorption at 320 nm. […] The reduction of CB1954 was monitored by quantifying the increase in the area of the peak corresponding to the reduction product 5-(aziridin-1-yl)-4-hydroxylamino-2-nitrobenzamide. All the assays were initiated by addition of the enzyme and performed in duplicate. The kinetic parameters were calculated by plotting the initial rate of reduction at each concentration of CB1954 against that concentration and fitting the data to the Michaelis-Menton equation using a computer programme (Fig P). Values were confirmed by transforming the data and fitting it to various linear forms of the equation by regression analysis.
The effect of various co-substrates on CB1954 reduction was determined as above but the co-substrate was substituted for the NRH and C1954 was used at a fixed concentration of 100 μM. The enzyme concentration was 1 or 5 μg/ml. The reduction of CB1954 was monitored by measuring both the decrease in its corresponding peak area on the HPLC trace and the increase in the area of the peak corresponding to the reduction product 5-(aziridin-1-yl)-4-hydroxylamino-2-nitrobenzamide. The relative rates of reduction were determined at 10% reduction of CB1954 from a graph plotting CB1954 reduction against time. The time axis was normalised to the equivalent of 10 μg/ml of NQO2. The kinetic parameters of NQO2 for the various co-substrates was determined as for CB1954 except that the initial concentration of CB1954 was constant at 100 μm whilst that of the co-substrate was varied from 0 to 2 mM. The enzyme concentration was 0.5 μg/ml.

NQO2 [4] = target: T2, NQO2; assay: Inhibition of NQO2 by flavones; format: biochemical; conditions: competitive with respect to NRH; read-out: K1 (competitive inhibitor with respect to NRH)
[5] = substrate: NC(=O)c1cc(N2CC2)c([N+](=O)[O-])cc1[N+](=O)[O-]; assay: Kinetic parameters of NQO2 with respect to CB 1954 (HPLC); format: biochemical, human; conditions: other: with respect to CB 1954; NRH as co-substrate; pH 7.0; 37.0 °C
Procedure: Recombinant human NQO2 was prepared in E. coli. A NcoI and a HindIII restriction site were added to the 5′ and 3′-ends of the full-length NQO2 cDNA, respectively, using a PCR method with primers and nucleotide sequences derived from the 5′ and 3′-ends of the cDNA. The PCR product was resolved over a 1% agarose gel and then extracted using the QiAquick Gel Extraction Kit (Qiagen Inc). The gel-purified PCR product was cloned into PCRII vector from the TA cloning kit (Invitrogen Co) and the correct sequence of the PCR product was checked by dideoxy sequencing. The resulting construct was religated into the E. coli expression vector, pKK233-2 (Pharmacia) through the engineered NcoI and HindIII restriction sites. The expression plasmid was designated pKK-hNQO2. […] The purified NQO2 preparation was analysed by SDS-PAGE electrophoresis. The activity of NQO2 in the presence of CB 1954, and various cofactors was determined by HPLC. […] The eluate was continuously monitored for absorption at 320 nm. […] The reduction of CB 1954 was monitored by quantifying the increase in the area of the peak corresponding to the reduction product 5-(aziridin-1-yl)-4-hydroxylamino-2-nitrobenzamide. […] The kinetic parameters were calculated by plotting the initial rate of reduction at each concentration of CB 1954 against that concentration and fitting the data to the Michales-Menton equation using a computer programme (FigP). […]

With `NC(=O)C1=CN(CCCS(=O)(=O)O)C=CC1` [Compound 1, 1-(3-sulfonatopropyl)-dihydronicotinamide] the “uptake / internalisation into cells” value (wild-type V79 cells) was “excluded from the cells; also recorded: do not expect it to enter cells and this is what is observed”, the “uptake / internalisation into cells” value (wild-type V79 cells; listed as compound 1) was “excluded from cells; also recorded: not able to enter the cells” and the “ability of rat DT diaphorase to use as co-substrate” value (from here on “ability of rat DT diaphorase to use”) (Rat DT-diaphorase) was “able to use”. For the same molecule, the “ability of E. coli nitroreductase to use as co-substrate” value (“ability of E. coli nitroreductase” below) (E. coli nitroreductase) was “not able to use either”, the “intrinsic toxicity as judged by body weight loss” value [1] was “no evidence of intrinsic toxicity” and the “increase of the cytotoxicity of CB 1954 by added co-substrate” value [2] was “did not potentiate; also recorded: no potentialtion is observed”. It also gave a Km (NQO2 [3]) of 1080 ± 135 µM and a kcat (NQO2 [3]) of 1530 min⁻¹.

For `NC(=O)CN1C=CCC(C(N)=O)=C1` [Compound 2, 1-(carboxamidomethyl)-dihydronicotinamide], the “internalisation relative to NRH” value (wild-type V79 cells) was “about 10 % of NRH”, the “uptake / internalisation into cells” value (wild-type V79 cells) was “poorly internalised” and the “ability of rat DT diaphorase to use” value (Rat DT-diaphorase) was “able to use”. For the same molecule, the “ability of E. coli nitroreductase” value (E. coli nitroreductase) was “not able to use either”, the “intrinsic toxicity as judged by body weight loss” value [1] was “no evidence of intrinsic toxicity” and the Km (NQO2 [3]) was 198 ± 19 µM. The kcat (NQO2 [3]) was 750 min⁻¹.

For `NC(=O)C1=CN(Cc2ccccc2)C=CC1` [Compound 8, 1-benzyl-dihydronicotinamide], the “ability to act as co-substrate for NQO2” value (NQO2 [3]) was “not cosubstrates” and the “ability to act as co-substrate for NQO2” value (NQO2 [3]; listed as compound 8) was “not co-substrates”.

In the case of `NC(=O)C1=CN(CCc2ccccc2)C=CC1` [Compound 11], the “ability to act as co-substrate for NQO2” value (NQO2 [3]) is reported as “not cosubstrates; also recorded: poor co-substrate”.

For `NC(=O)C1=CN([C@@H]2O[C@H](COP(=O)(O)OP(=O)(O)OC[C@H]3O[C@@H](n4cnc5c(N)ncnc54)[C@H](O)[C@@H]3O)[C@@H](O)[C@H]2O)C=CC1` [NADH], the “ability of rat DT diaphorase to use” value (Rat DT-diaphorase) was “can use NADH as a co-substrate”, the “ability of E. coli nitroreductase” value (E. coli nitroreductase) was “can use NADH as a co-substrate” and the “RELATIVE RATE OF REDUCTION” value (NQO2 [3]) was 1.0. The “ability to act as co-substrate for NQO2” value (NQO2 [3]) was “not readily catalysed; also recorded: not cosubstrates; also recorded: poor co-substrates”.

With `NC(=O)C1=CN([C@@H]2O[C@H](COP(=O)(O)OP(=O)(O)OC[C@H]3O[C@@H](n4cnc5c(N)ncnc54)[C@H](OP(=O)(O)O)[C@@H]3O)[C@@H](O)[C@H]2O)C=CC1` [NADPH] the “RELATIVE RATE OF REDUCTION” value (NQO2 [3]) was 1.24 and the “ability to act as co-substrate for NQO2” value (NQO2 [3]) was “not readily catalysed; also recorded: not cosubstrates; also recorded: poor co-substrates”.

For `NC(=O)C1=CN([C@@H]2O[C@H](COP(=O)(O)O)[C@@H](O)[C@H]2O)C=CC1` [NMNH], the “RELATIVE RATE OF REDUCTION” value (NQO2 [3]) was 5.6.

`O=c1c(O)c(-c2ccc(O)c(O)c2)oc2cc(O)cc(O)c12` [Quercetin, 3,5,7,3′,4′-pentahydroxyflavone] gave a Ki (NQO2 [4]) of 27 nM.

In the case of `O=C(O)C1=CN(C2O[C@H](COP(=O)(O)O)[C@@H](O)[C@H]2O)C=CC1` (some centres unmarked) [nicotinic acid mononucleotide (reduced)], the “ability to act as co-substrate for NQO2” value (NQO2 [3]) is reported as “not co-substrates”.

B1: Recombinant human NQO2 (Homo sapiens) (protein)
chain: MAGKKVLIVYAHQEPKSFNGSLKNVAVDELSRQGCTVTVSDLYAMNLEPRATDKDITGTLSNPEVFNYGVETHEAYKQRSLASDITDEQKKVREADLVIFQFPLYWFSVPAILKGWMDRVLCQGFAFDIPGFYDSGLLQGKLALLSVTTGGTAEMYTKTGVNGDSRYFLWPLQHGTLHFCGFKVLAPQISFAPEIASEEERKGMVAAWSQRLQTIWKEEPIPCTAHWHFGQ
notes: restriction site were added to the 5′ and 3′-ends of the full-length NQO2 cDNA; made in house; host or cells: E. coli (expression vector pKK233-2, plasmid pKK-hNQO2)
B1 gave a Km [5] of 263 ± 13 µM and a kcat [5] of 6.01 s⁻¹.
